The term IC50 denotes the midpoint of a concentration-inhibition curve. A lower IC50 goes with greater potency in that assay.

Structures are written as SMILES. Bounds are passed on as bounds.

This assay addresses LRRK2 G2019S enzyme (Homo sapiens (Human), UniProt Q5S007, G2019S). The assay can be described thus: LRRK2 G2019S TR-FRET biochemical kinase assay (LRRKtide substrate). Particulars: Table A-2; 5 nM LRRK2, 134 μM ATP, 60 minute reaction, 23° C. How it is done: LRRK2 G2019S enzyme, Substrate (LRRKtide), ATP, TR-FRET dilution buffer, pLRRKtide antibody, 384-well assay plate, and DMSO.
50 mM Tris pH 7.5, 10 mM MgCl2, 1 mM EGTA, 0.01% Brij-35, 2 mM DTT, 5 nM LRRK2, 134 μM ATP, 60 minute reaction time, 23° C. reaction temperature, and 10 μL total reaction volume.
1×TR-FRET dilution buffer, 10 mM EDTA, 2 nM antibody, 23° C. reaction temperature, and 10 μL total reaction volume.
Compound solutions were prepared by initially diluting to 1 mM with DMSO. 35 μL of reference compound solution, 35 μL of test compound solution, and 35 μL HPE were successively added to the source plate (384-well assay plate, Labcyte). The plates were centrifuged at 2500 rpm for 1 minute and sealed in foil. POD was used to perform a 3.162 fold serial dilution and 100 nL of reference compound solution, test compound solution, HPE and ZPE were transferred to assay plates. The assay plate was centrifuged at 2500 rpm for 1 minute, and sealed with foil.
To perform the enzyme reaction, 5 μL of LRRKtide substrate and kinase mixture in assay buffer was added to all wells of the assay plate. The plate was centrifuged to concentrate the mixture at the bottom of the wells. The assay plate was incubated at 23° C. for 20 minutes. Following incubation, 5 μL of 2×ATP in assay buffer was added to each well, and plates were centrifuged to concentrate the mixture at the bottom of the wells. The plate was incubated at 23° C. for 60 minutes.
To perform the detection of the reaction, EDTA completely mixed in TR-FRET dilution buffer was added to antibody reagent. 10 μL of detection reagent was added to all wells of each well of the assay-plate and the plate was centrifuged to concentrate the mixture at the bottom of the wells. The plate was then incubated at 23° C. for 60 minutes. Plates were read on Perkin Elmer Envision 2104 instrument in TR-FRET mode using a 340 nm excitation filter, 520 nm fluorescence emission filter, and 490 or 495 nm terbium emission filter.
B-2, C2, and D-4 respectively.
A general note: Time-resolved FRET reads energy transfer from a long-lived donor to a nearby acceptor.

Sequence of LRRK2 G2019S enzyme (Q5S007 whole entry G2019S): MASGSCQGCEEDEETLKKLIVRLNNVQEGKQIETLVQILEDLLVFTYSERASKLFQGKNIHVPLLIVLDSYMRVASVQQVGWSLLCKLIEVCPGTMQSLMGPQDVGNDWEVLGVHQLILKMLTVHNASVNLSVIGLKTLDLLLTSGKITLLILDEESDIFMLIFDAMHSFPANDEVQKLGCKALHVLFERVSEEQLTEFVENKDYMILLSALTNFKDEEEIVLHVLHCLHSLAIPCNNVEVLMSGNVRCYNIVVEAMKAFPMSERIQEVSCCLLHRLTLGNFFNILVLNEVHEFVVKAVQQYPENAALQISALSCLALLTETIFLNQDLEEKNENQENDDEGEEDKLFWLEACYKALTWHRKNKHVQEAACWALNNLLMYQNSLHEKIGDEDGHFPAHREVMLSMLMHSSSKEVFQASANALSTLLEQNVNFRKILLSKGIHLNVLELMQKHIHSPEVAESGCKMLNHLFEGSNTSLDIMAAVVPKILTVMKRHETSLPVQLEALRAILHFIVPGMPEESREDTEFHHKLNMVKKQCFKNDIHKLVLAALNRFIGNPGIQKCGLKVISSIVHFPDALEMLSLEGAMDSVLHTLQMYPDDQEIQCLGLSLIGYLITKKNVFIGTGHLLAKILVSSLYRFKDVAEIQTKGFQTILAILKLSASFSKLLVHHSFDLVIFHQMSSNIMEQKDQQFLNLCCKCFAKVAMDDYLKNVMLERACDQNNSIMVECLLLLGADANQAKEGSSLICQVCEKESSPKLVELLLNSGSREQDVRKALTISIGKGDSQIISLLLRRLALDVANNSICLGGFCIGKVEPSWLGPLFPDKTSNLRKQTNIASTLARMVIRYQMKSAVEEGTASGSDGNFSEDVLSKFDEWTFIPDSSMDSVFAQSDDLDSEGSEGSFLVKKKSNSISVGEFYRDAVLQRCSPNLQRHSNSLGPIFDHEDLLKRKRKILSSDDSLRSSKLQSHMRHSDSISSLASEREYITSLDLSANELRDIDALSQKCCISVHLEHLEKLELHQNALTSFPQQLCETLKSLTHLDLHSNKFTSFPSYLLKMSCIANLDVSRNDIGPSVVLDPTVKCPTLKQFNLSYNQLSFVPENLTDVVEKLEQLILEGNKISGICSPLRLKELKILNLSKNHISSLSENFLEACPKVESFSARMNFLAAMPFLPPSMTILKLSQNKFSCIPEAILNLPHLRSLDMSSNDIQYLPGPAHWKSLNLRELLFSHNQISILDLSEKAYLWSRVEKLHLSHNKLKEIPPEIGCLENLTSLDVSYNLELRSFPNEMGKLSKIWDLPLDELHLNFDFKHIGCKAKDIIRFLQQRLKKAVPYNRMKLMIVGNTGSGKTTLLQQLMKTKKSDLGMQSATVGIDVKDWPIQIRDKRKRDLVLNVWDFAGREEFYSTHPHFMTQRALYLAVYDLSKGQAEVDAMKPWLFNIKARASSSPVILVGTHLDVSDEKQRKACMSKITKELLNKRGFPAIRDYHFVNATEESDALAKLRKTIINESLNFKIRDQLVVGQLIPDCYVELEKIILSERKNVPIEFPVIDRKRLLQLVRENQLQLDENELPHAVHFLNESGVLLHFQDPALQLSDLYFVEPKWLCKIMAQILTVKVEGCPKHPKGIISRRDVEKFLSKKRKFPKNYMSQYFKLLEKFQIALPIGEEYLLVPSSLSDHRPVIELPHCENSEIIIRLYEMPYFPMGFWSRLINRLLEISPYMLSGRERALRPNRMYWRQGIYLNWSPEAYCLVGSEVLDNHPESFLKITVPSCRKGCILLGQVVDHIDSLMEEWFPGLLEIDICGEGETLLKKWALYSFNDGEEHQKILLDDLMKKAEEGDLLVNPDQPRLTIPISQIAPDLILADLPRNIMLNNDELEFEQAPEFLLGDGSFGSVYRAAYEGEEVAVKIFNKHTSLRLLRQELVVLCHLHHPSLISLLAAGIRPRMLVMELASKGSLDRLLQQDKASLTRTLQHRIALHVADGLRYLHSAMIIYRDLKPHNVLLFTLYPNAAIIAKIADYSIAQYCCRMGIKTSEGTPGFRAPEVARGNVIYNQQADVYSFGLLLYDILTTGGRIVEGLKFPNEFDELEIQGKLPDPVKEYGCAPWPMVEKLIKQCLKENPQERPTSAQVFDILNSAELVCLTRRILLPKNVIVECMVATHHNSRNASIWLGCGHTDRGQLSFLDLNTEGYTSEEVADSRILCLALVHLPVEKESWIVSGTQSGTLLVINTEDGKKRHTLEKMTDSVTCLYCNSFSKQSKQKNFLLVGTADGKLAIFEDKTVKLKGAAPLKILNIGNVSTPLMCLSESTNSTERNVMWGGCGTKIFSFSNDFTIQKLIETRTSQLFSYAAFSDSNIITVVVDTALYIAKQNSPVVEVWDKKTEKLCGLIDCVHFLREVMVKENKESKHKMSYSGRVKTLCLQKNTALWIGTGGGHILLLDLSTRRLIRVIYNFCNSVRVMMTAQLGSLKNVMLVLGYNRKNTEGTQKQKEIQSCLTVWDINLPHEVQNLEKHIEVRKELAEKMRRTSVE

Consider `Cc1c(Nc2ncc(C(F)(F)F)c(C3CC3)n2)cnn1C1COC1` [Compound A-15, 4-cyclopropyl-N-[5-methyl-1-(oxetan-3-yl)pyrazol-4-yl]-5-(trifluoromethyl)pyrimidin-2-amine], for which the IC50 was < 30 nM.
Regarding `[2H]C([2H])([2H])n1cnc(C(C)(C)n2cc(Nc3ncc(C(F)(F)F)c(C4CC4)n3)c(C)n2)n1` [Compound A-16, 4-cyclopropyl-N-[3-methyl-1-[1-methyl-1-[1-(trideuteriomethyl)-1,2,4-triazol-3-yl]ethyl]pyrazol-4-yl]-5-(trifluoromethyl)pyrimidin-2-amine], the IC50 is < 30 nM.
Next, `CC(C)(C#N)n1cc(Nc2ncc(C(F)(F)F)c(C3CC3)n2)c(Cl)n1` [Compound A-17, 2-(3-chloro-4-((4-cyclopropyl-5-(trifluoromethyl)pyrimidin-2-yl)amino)-1H-pyrazol-1-yl)-2-methylpropanenitrile]: 30 to 60 nM; `Cc1c(Nc2ncc(C(F)(F)F)c(C3CC3)n2)cnn1CC(C)(C)O` [Compound A-18, 1-[4-[[4-cyclopropyl-5-(trifluoromethyl)pyrimidin-2-yl]amino]-5-methyl-pyrazol-1-yl]-2-methyl-propan-2-ol]: 30 to 60 nM.
Next, `Cc1nn(CC(C)(C)O)cc1Nc1ncc(C(F)(F)F)c(C2CC2)n1` [Compound A-19, 1-[4-[[4-cyclopropyl-5-(trifluoromethyl)pyrimidin-2-yl]amino]-3-methyl-pyrazol-1-yl]-2-methyl-propan-2-ol]: 30 to 60 nM; `CC(=O)N1CCC(n2ncc(Nc3ncc(C(F)(F)F)c(C4CC4)n3)c2C)CC1` [Compound A-20, 1-[4-[4-[[4-cyclopropyl-5-(trifluoromethyl)pyrimidin-2-yl]amino]-5-methyl-pyrazol-1-yl]-1-piperidyl]ethanone]: < 30 nM.
Next, `CC(=O)N1CCC(n2cc(Nc3ncc(C(F)(F)F)c(C4CC4)n3)c(C)n2)CC1` [Compound A-21, 1-[4-[4-[[4-cyclopropyl-5-(trifluoromethyl)pyrimidin-2-yl]amino]-3-methyl-pyrazol-1-yl]-1-piperidyl]ethanone]: 30 to 60 nM.
Take `Cc1nn(C(C)(C)c2ccnn2C)cc1Nc1ncc(C(F)(F)F)c(C2CC2)n1` [Compound A-22, 4-cyclopropyl-N-(3-methyl-1-(2-(1-methyl-1H-pyrazol-5-yl)propan-2-yl)-1H-pyrazol-4-yl)-5-(trifluoromethyl)pyrimidin-2-amine]: the IC50 is > 60 nM.
Next, `Cc1nn(C(C)(C)c2ccn(C)n2)cc1Nc1ncc(C(F)(F)F)c(C2CC2)n1` [Compound A-23, 4-cyclopropyl-N-(3-methyl-1-(2-(1-methyl-1H-pyrazol-3-yl)propan-2-yl)-1H-pyrazol-4-yl)-5-(trifluoromethyl)pyrimidin-2-amine]: < 30 nM; `Cc1c(Nc2ncc(C(F)(F)F)c(C3CC3)n2)cnn1C1CCOCC1` [Compound A-24, 4-cyclopropyl-N-(5-methyl-1-tetrahydropyran-4-yl-pyrazol-4-yl)-5-(trifluoromethyl)pyrimidin-2-amine]: < 30 nM; `Cc1nn(C2CCOCC2)cc1Nc1ncc(C(F)(F)F)c(C2CC2)n1` [Compound A-25, 4-cyclopropyl-N-(3-methyl-1-tetrahydropyran-4-yl-pyrazol-4-yl)-5-(trifluoromethyl)pyrimidin-2-amine]: 30 to 60 nM.
The figure for `Cc1c(Nc2ncc(C(F)(F)F)c(C3CC3)n2)cnn1C1CCC(=O)N(C)C1` (stereo not shown) [Compound A-26, 5-(4-((4-cyclopropyl-5-(trifluoromethyl)pyrimidin-2-yl)amino)-5-methyl-1H-pyrazol-1-yl)-1-methylpiperidin-2-one] is < 30 nM; for `Cc1nn(C2CCC(=O)N(C)C2)cc1Nc1ncc(C(F)(F)F)c(C2CC2)n1` (stereo not shown) [Compound A-27, 5-(4-((4-cyclopropyl-5-(trifluoromethyl)pyrimidin-2-yl)amino)-3-methyl-1H-pyrazol-1-yl)-1-methylpiperidin-2-one] it is > 60 nM; for `Cc1c(Nc2ncc(C(F)(F)F)c(C3CC3)n2)cnn1C(CF)CF` [Compound A-28, 4-cyclopropyl-N-[1-[2-fluoro-1-(fluoromethyl)ethyl]-5-methyl-pyrazol-4-yl]-5-(trifluoromethyl)pyrimidin-2-amine] it is < 30 nM.
In the case of `Cc1nn(C(CF)CF)cc1Nc1ncc(C(F)(F)F)c(C2CC2)n1` [Compound A-29, 4-cyclopropyl-N-[1-[2-fluoro-1-(fluoromethyl)ethyl]-3-methyl-pyrazol-4-yl]-5-(trifluoromethyl)pyrimidin-2-amine], the IC50 was < 30 nM.
Next, `Cc1c(Nc2ncc(C(F)(F)F)c(C3CC3)n2)cnn1CCF` [Compound A-30, 4-cyclopropyl-N-(1-(2-fluoroethyl)-5-methyl-1H-pyrazol-4-yl)-5-(trifluoromethyl)pyrimidin-2-amine]: < 30 nM.
The figure for `Cc1nn(CCF)cc1Nc1ncc(C(F)(F)F)c(C2CC2)n1` [Compound A-31, 4-cyclopropyl-N-(1-(2-fluoroethyl)-3-methyl-1H-pyrazol-4-yl)-5-(trifluoromethyl)pyrimidin-2-amine] is < 30 nM; for `Cc1nn(C(C)(C)C#N)cc1Nc1ncc(Cl)c(C2CCC2)n1` [Compound A-32, 2-(4-((5-chloro-4-cyclobutylpyrimidin-2-yl)amino)-3-methyl-1H-pyrazol-1-yl)-2-methylpropanenitrile] it is > 60 nM; for `Cc1nn(C(C)(C)c2ccnn2C)cc1Nc1ncc(Cl)c(C2CC2)n1` [Compound A-33, 5-chloro-4-cyclopropyl-N-(3-methyl-1-(2-(1-methyl-1H-pyrazol-5-yl)propan-2-yl)-1H-pyrazol-4-yl)pyrimidin-2-amine] it is > 60 nM.
Next, `Cc1nn(C(C)(C)c2ccn(C)n2)cc1Nc1ncc(Cl)c(C2CC2)n1` [Compound A-34, 5-chloro-4-cyclopropyl-N-(3-methyl-1-(2-(1-methyl-1H-pyrazol-3-yl)propan-2-yl)-1H-pyrazol-4-yl)pyrimidin-2-amine]: < 30 nM; `Cc1nn(C(C)(C)c2ncn(C)n2)cc1Nc1ncc(Cl)c(C2CC2)n1` [Compound A-35, 5-chloro-4-cyclopropyl-N-(3-methyl-1-(2-(1-methyl-1H-1,2,4-triazol-3-yl)propan-2-yl)-1H-pyrazol-4-yl)pyrimidin-2-amine]: < 30 nM; `Cn1cnc(C(C)(C)n2cc(Nc3ncc(C(F)(F)F)c(C4CC4)n3)c(Cl)n2)n1` [Compound A-36, N-(3-chloro-1-(2-(1-methyl-1H-1,2,4-triazol-3-yl)propan-2-yl)-1H-pyrazol-4-yl)-4-cyclopropyl-5-(trifluoromethyl)pyrimidin-2-amine]: < 30 nM.
As for `Cn1ncnc1C(C)(C)n1cc(Nc2ncc(C(F)(F)F)c(C3CC3)n2)c(Cl)n1` [Compound A-37, N-(3-chloro-1-(2-(1-methyl-1H-1,2,4-triazol-5-yl)propan-2-yl)-1H-pyrazol-4-yl)-4-cyclopropyl-5-(trifluoromethyl)pyrimidin-2-amine], the 50% inhibitory concentration (IC50) was > 60 nM.
The figure for `Cc1nn(C(C)(C)C#N)cc1Nc1ncc(C(F)(F)F)c(C2(F)CC2)n1` [Compound A-38, 2-(4-((4-(1-fluorocyclopropyl)-5-(trifluoromethyl)pyrimidin-2-yl)amino)-3-methyl-1H-pyrazol-1-yl)-2-methylpropanenitrile] is > 60 nM; for `Cc1nn(C(C)(C)c2cn(C)nn2)cc1Nc1ncc(C(F)(F)F)c(C2CC2)n1` [Compound A-39, 4-cyclopropyl-N-(3-methyl-1-(2-(1-methyl-1H-1,2,3-triazol-4-yl)propan-2-yl)-1H-pyrazol-4-yl)-5-(trifluoromethyl)pyrimidin-2-amine] it is < 30 nM.
Take `Cc1nn(C(C)(C)c2cnn(C)n2)cc1Nc1ncc(C(F)(F)F)c(C2CC2)n1` [Compound A-40, 4-cyclopropyl-N-(3-methyl-1-(2-(2-methyl-2H-1,2,3-triazol-4-yl)propan-2-yl)-1H-pyrazol-4-yl)-5-(trifluoromethyl)pyrimidin-2-amine]: the IC50 is < 30 nM.
The figure for `Cc1nn(C2(c3ncn(C)n3)CCC2)cc1Nc1ncc(C(F)(F)F)c(C2CC2)n1` [Compound A-41, 4-cyclopropyl-N-[3-methyl-1-[1-(1-methyl-1,2,4-triazol-3-yl)cyclobutyl]pyrazol-4-yl]-5-(trifluoromethyl)pyrimidin-2-amine] is < 30 nM.
The figure for `Cc1nn(C2(c3ncnn3C)CCC2)cc1Nc1ncc(C(F)(F)F)c(C2CC2)n1` [Compound A-42, 4-cyclopropyl-N-[3-methyl-1-[1-(2-methyl-1,2,4-triazol-3-yl)cyclobutyl]pyrazol-4-yl]-5-(trifluoromethyl)pyrimidin-2-amine] is > 60 nM.

The record behind these values is patent US11214565B2, “Compound, compositions, and methods” (Denali Therapeutics Inc., priority 2015, dated 2022).
